From US9469854B2, “Pharmaceutical composition for treating liver diseases” (Academia Sinica, priority 2014, dated 2016)

Assays:
hsa-miR-21-3p = experiment: miRNA microarray profiling of berberine-treated primary human hepatocytes; format: cell-based; settings: PHHs from 3 donors, 40 μM berberine, 2 h
Procedure: The primary human hepatocytes from Caucasian donors were purchased from Invitrogen and cultured following the manufacturer's instructions. The hepatocytes were thawed and transferred into cryopreserved hepatocytes recovery medium (CM7000, Invitrogen), centrifuging at room temperature, 100×g for 10 min. Then, the hepatocytes were diluted to seeding density with plating medium (CM3000, Invitrogen) and added into collagen I-coated plates (Invitrogen). These plates were incubated at 37° C. for 4-6 hours under 5% CO2 for forming a monolayer. Then, plating medium was replaced by overlay incubation medium (CM4000 and 0.35 mg/mL Geltrex™ Matrix, Invitrogen), and the incubation medium was replaced daily. In the following examples, hepatocytes form 3 to 4 donors were used for experiments.
A 50 mM stock solution of berberine chloride (Sigma-Aldrich) was prepared in dimethyl sulfoxide (DMSO). […]
Total RNA was extracted using a TRIZOL reagent (Invitrogen) according to the manufacturer's protocol. The total RNA quantity was measured using a NanoDrop ND-1000 spectrophotometer (Nanodrop Technologies). […]
The miRNA profiling was performed using an Agilent human miRNA Microarray R14 V2 containing 866 human miRNAs. […] Microarrays were scanned following the Agilent microarray scanner protocol, and image analysis and quantification were performed using the Agilent Feature Extraction software (Agilent Technologies). […]

miR-21-3p = experiment: qRT-PCR microRNA assay in HepG2 cells; format: cell-based, human; settings: HepG2, 40 μM berberine
Procedure: (§1) The human HepG2 cells and HEK 293T cells used in the following examples were originally obtained from the American Tissue Culture Collection (ATCC, USA). The human HCC HepG2 cell line was cultured in Minimum Essential Medium Eagle (Sigma) supplemented with 10% fetal bovine serum (FBS) (Invitrogen), 2.2 g/L of sodium bicarbonate (Sigma), 0.1 mM of non-essential amino acids (Caisson), 1 mM of sodium pyruvate (Invitrogen), and 10 of ml/L penicillin-streptomycin-amphotericin solution (Biological Industries). Human HEK-293T cells were maintained in high-glucose Dulbecco's modified eagle medium (Invitrogen) supplemented with 10% FBS and 3.7 g/L of sodium bicarbonate (Sigma). Both cell lines were cultured at 37° C. and 5% CO2. A 50 mM stock solution of berberine chloride (Sigma-Aldrich) was prepared in dimethyl sulfoxide (DMSO). Cells were treated with 40 μM of berberine chloride or 0.08% DMSO as the control. For induction of lipid droplets formation in cultured cells, 200 μM of oleic acid (Sigma-Aldrich) was added into the culture medium for 24 h. Total RNA was extracted using a TRIZOL reagent (Invitrogen) according to the manufacturer's protocol. The total RNA quantity was measured using a NanoDrop ND-1000 spectrophotometer (Nanodrop Technologies). The total RNA quality and integrity were assayed using an Agilent 2100 bioanalyzer with an RNA 6000 nano kit (Agilent Technologies). […] The microRNA expression levels were normalized to RNU6B levels.

miR-21-5p = experiment: qRT-PCR microRNA assay in HepG2 cells; format: cell-based, human; settings: HepG2, 40 μM berberine
Procedure: as §1

HepG2 cells = experiment: Apoptosis (sub-G1 population) by flow cytometry with PI staining; format: cell-based, human; settings: HepG2, 50 nM mimic transfection 72 h vs NC mimic
Procedure: After transfection with 50 nM of hsa-miR-21-3p mimic or the negative-control mimic for 72 h, the HepG2 cells were trypsinized and counted. Apoptosis was detected by measuring the sub-G1 population by using flow cytometry with propidium iodide (PI) staining. In brief, the cells were fixed in 70% ethanol on ice for 15 min, and stained with the PI staining solution (20 μg/mL PI, 0.1% Triton-X 100, and 0.2 mg/mL RNase A in PBS) for 30 min at room temperature and analyzed using CyAn ADP (Beckman Coulter) flow cytometry with Summit software.

DIDO1 = experiment: qRT-PCR mRNA expression in HepG2 cells; format: cell-based, human; settings: HepG2, 50 nM mimic transfection, 24 hours
Procedure: (§2) The human HepG2 cells and HEK 293T cells used in the following examples were originally obtained from the American Tissue Culture Collection (ATCC, USA). The human HCC HepG2 cell line was cultured in Minimum Essential Medium Eagle (Sigma) supplemented with 10% fetal bovine serum (FBS) (Invitrogen), 2.2 g/L of sodium bicarbonate (Sigma), 0.1 mM of non-essential amino acids (Caisson), 1 mM of sodium pyruvate (Invitrogen), and 10 of ml/L penicillin-streptomycin-amphotericin solution (Biological Industries). Human HEK-293T cells were maintained in high-glucose Dulbecco's modified eagle medium (Invitrogen) supplemented with 10% FBS and 3.7 g/L of sodium bicarbonate (Sigma). Both cell lines were cultured at 37° C. and 5% CO2.
(§3) Total RNA was extracted using a TRIZOL reagent (Invitrogen) according to the manufacturer's protocol. The total RNA quantity was measured using a NanoDrop ND-1000 spectrophotometer (Nanodrop Technologies). The total RNA quality and integrity were assayed using an Agilent 2100 bioanalyzer with an RNA 6000 nano kit (Agilent Technologies).
(§4) Total RNAs (1 μg) were reverse-transcribed into cDNA by using M-MuLV Reverse Transcriptase (Thermo) and Oligo(dT)12-18 primers (Invitrogen) according to the manufacturer's protocol. The cDNA were then used for a real-time PCR with a LightCycler 480 SYBR Green I Master (Roche) by using primers shown in the following Table 1. The gene expression levels were normalized to GAPDH levels.
(§5) The HepG2 cells were transfected at a density of 5×10^4 cells per well in a 24-well culture plates with either 50 nM of hsa-miR-21-3p (miR-21-3p mimic) or negative-control mimic (NC mimic), or with either 100 nM of hsa-miR-21-3p inhibitor (miR-21-3p inhibitor) or negative-control inhibitor (NC inhibitor) by using the DharmaFECT 4 transfection reagent (Thermo Scientific Dharmacon) according to the manufacturer's instructions. Cells were incubated for 24 h or 48 h with a microRNA mimic or inhibitor prior to RNA purification for gene expression analysis, and were incubated for 72 h for protein expression analysis.

EEF2K = experiment: qRT-PCR mRNA expression in HepG2 cells; format: cell-based, human; settings: HepG2, 50 nM mimic transfection, 24 hours
Procedure: as §2, §3, §4, §5

TMEM137 = experiment: qRT-PCR mRNA expression in HepG2 cells; format: cell-based, human; settings: HepG2, 50 nM mimic transfection, 24 hours
Procedure: as §2, §3, §4, §5

NBPF8 = experiment: qRT-PCR mRNA expression in HepG2 cells; format: cell-based, human; settings: HepG2, 50 nM mimic transfection, 24 hours
Procedure: as §2, §3, §4, §5

DGAT2 = experiment: qRT-PCR mRNA expression in HepG2 cells; format: cell-based, human; settings: HepG2, miR-21-3p over-expressed, 24 h
Procedure: as §2, §3, §4, §5

Compound: COc1ccc2cc3[n+](cc2c1OC)CCc1cc2c(cc1-3)OCO2 [berberine]
- hsa-miR-21-3p expression increase (miRNA microarray), mean (hsa-miR-21-3p): 3.36 fold
- miR-21-3p level increase (qRT-PCR) (miR-21-3p; 1 h vs untreated control): 2.1 fold
- miR-21-3p level increase (qRT-PCR) (miR-21-3p; 2 h (peak) vs untreated control): 3.5 fold
- miR-21-3p level increase (qRT-PCR) (miR-21-3p; 8 h vs untreated control): 2.8 fold
- miR-21-5p level increase (qRT-PCR) (miR-21-5p; 2 h): 2 fold
- miR-21-5p expression change (qRT-PCR) (miR-21-5p; 4 h and 8 h): no significant differences

Compound: hsa-miR-21-3p (CAACACCAGUCGAUGGGCUGU; listed as RNA, chemistry not given here) [miR-21-3p mimic]
- apoptosis (sub-G1 population) (HepG2 cells): induced apoptosis
- decrease in mRNA expression of DIDO1 (DIDO1): < 50%
- decrease in mRNA expression of EEF2K (EEF2K): > 50%
- decrease in mRNA expression of TMEM137 (TMEM137): < 50%
- decrease in mRNA expression of NBPF8 (NBPF8): < 50%
- decrease in mRNA level of DGAT2 (DGAT2): 2.3 fold
